Source: patent US9043995B2, “Transgenic fish and uses thereof” (CITY UNIVERSITY OF HONG KONG, priority 2010, dated 2015)
“Also recorded” adds a separate entry of the source.

Key:
[1] = tested on: transgenic brackish medaka larvae (omChgH promoter-EGFP); test: Estrogen-like activity: induced liver GFP signal in omChgH promoter-EGFP transgenic brackish medaka fish exposed to test solution; assay type: in vivo, Oryzias melastigma; conditions: for GFP signal in the liver: phytoestrogens separately, high concentrations, 48 hours; for induction of GFP expression in the liver, compound alone: transgenic O. melastigma fish/larvae; for induction of liver GFP expression: transgenic brackish medaka larvae, at nM level
Protocol: A generalized exposure regimen is established in the present art. FIG. 4 presents an example of using transgenic fish larvae to analyze the estrogen-like activity of a test solution. Exposure of transgenic brackish medaka fish (preferably yolk-sac larvae fish) to test solution (containing estrogen or estrogenic substances) is performed at 28° C. The exposure usually takes 24-48 hours. After exposure, the fish will be deposited on the inner side of a petri-dish cover with a small drop of test solution left. The induced EGFP expression in the fish liver will be observed under fluorescence microscope. Yolk-sac larvae are small, exposure can be carried out in utensils like 96-well plate, 24-well plate, petri-dish and so on to save test reagents. Additionally, newly hatched larvae are the most transparent stage, and the transparence can keep up to 15 days after hatch. After 15 days, the larvae will be gradually less transparent due to the development of muscle. The transgenic fish larvae of 1 to 15 days after hatch have similar estrogen sensitivity (FIG. 5).
(§1) In response to different concentrations of estrogen or estrogen-like chemical substances, transgenic fish expresses varying quantity of EGFP protein which is presented as varying GFP signal intensity under fluorescence microscope. […] To quantify the estrogen-like activity of test solution, fluorescent image of fish liver is recorded using a camera connected with the fluorescence microscope. Liver GFP signal intensity can then be measured using some image analysis software such as Metamorph (Universal Imaging). To reduce the interference of fish autofluorescence, only fish liver area was selected for the analysis. The average signal intensity of the manually marked area calculated using the same software was regarded as GFP signal intensity. Fish liver photos recorded using the same image parameter setting can be compared directly using GFP signal intensity, those photos recorded using varying image parameter settings can also be compared as long as each group contain a common reference control.
Estrone (E1), 17β-estradiol (E2) and estriol (E3) are natural steroid estrogens. […] Of them, E2 has been intensively studied, and is commonly used as a standard estrogen to evaluate the estrogen-like activity of testing reagents. Using transgenic larvae of present invention, induced GFP signal by E2 can usually be observed within 24 hours, and the GFP signal increases with the increasing concentration of E2. At higher E2 concentrations (e.g., 102 or 1020 nM), induced GFP signal intensity can even be observed within 4 hours after onset of exposure, and the signal increases with exposure time (FIG. 8), and reaches saturation within 24 hours. At low E2 concentrations, however, it will take longer for the induced GFP signal to accumulate to become detectable. Thus, by exposing transgenic brackish medaka fish larvae to different concentrations of E2 for a period of time (such as 24 hours), imaging the GFP expressing liver, and then measuring the induced liver GFP signal intensity using image analysis software, a standard curve correlating GFP signal intensity and E2 concentration can be established (GFP-E2 standard curve; FIG. 9). Using the same regimen, and also include one known E2 concentration exposure as reference, the estrogen-like activity of test reagents can then be evaluated as estrogen potency equivalent by referring the induced liver GFP signal to that of GFP-E2 standard curve.

[2] = tested on: transgenic medaka fish larvae (omChgH promoter-EGFP); test: Binary exposure with E2: change of the liver GFP signal induced by 17β-estradiol in transgenic medaka larvae (agonism / anti-estrogen activity); assay type: in vivo, Oryzias melastigma; conditions: for effect on estrogenic activity / liver GFP signal induced by 17β-estradiol: binary exposure with E2
Protocol: Another method of the present invention relates to a method of screening for a compound having anti-estrogenic activity.
as §1
6-acetyl-1,1,2,4,4,7-hexamethyltetraline (AHTN) is one of the most widely used polycyclic musk. This compound is used as a fragrance ingredient in cosmetics and household cleaning products. According to HERA Risk Assessment reports in 2004, AHTN is produced in an annual volume of 1000 to 5000 tons in one Netherland and UK plant, respectively. According to HERA Risk Assessments, AHTN is not toxic to humans basing on present daily consumption. However, the ubiquitous distribution, high accumulation in environment (A Peck et al. Environ Sci Technol. 40: 5629-5635 (2006)), and bioaccumulation in organisms including human beings (H Nakata et al. Environ Sci Technol. 41: 2216-2222 (2007); S Lignell et al. Environ Sci Technol. 42: 6743-6748 (2008)) raise the concern of scientists. AHTN is found to be estrogen antagonist (RHMM Schreurs et al. Environ Sci Technol. 38: 997-1002 (2004); RHMM Schreurs et al. Toxicol Sci. 83: 264-272 (2005)). The estrogen antagonist activity of AHTN can also be very easily evaluated using transgenic medaka fish of present invention. Just expose transgenic medaka fish larvae to E2 (e.g. 0.04 μM) or E2 incombination with AHTN (e.g. 5 μM) for a period of time (e.g. 24 hours), and then measure the GFP signal intensity induced by E2 with/without the presence of AHTN.

Compound: O=c1c(-c2ccc(O)cc2)coc2cc(O[C@@H]3O[C@H](CO)[C@@H](O)[C@H](O)[C@H]3O)ccc12 [daidzin]
- GFP signal in the liver [1]: weak GFP signal

Compound: CCCCCCCCCc1ccc(O)cc1 [NP, 4-nonyphenol]
- induction of GFP expression in the liver, compound alone [1]: can also induce GFP expression

Compound: C[C@]12CC[C@@H]3c4ccc(O)cc4CC[C@H]3[C@@H]1CC[C@@H]2O [E2, 17β-estradiol, reference compound]
- time until induced GFP signal can be observed, higher E2 concentrations ([1]; 102 or 1020 nM, after onset of exposure): ≤ 4 h
- induced expression of transgene GFP in the liver ([1]; embryo, larva and male fish): can also be induced
- time until GFP signal reaches saturation ([1]; higher E2 concentrations (102 or 1020 nM)): ≤ 24 h
- induction of liver GFP expression [1]: can induce liver GFP expression
- time until induced GFP signal can be observed ([1]; transgenic larvae, E2 exposure): ≤ 24 h

Compound: C[C@]12CC[C@@H]3c4ccc(O)cc4CC[C@H]3[C@@H]1C[C@@H](O)[C@@H]2O [E3, estriol, reference compound]
- induction of liver GFP expression [1]: can induce liver GFP expression

Compound: C#C[C@]1(O)CC[C@H]2[C@@H]3CCc4cc(OC)ccc4[C@H]3CC[C@@]21C [ethinylestradiol 3-methyl ether, reference compound]
- induced liver GFP signal compared with E2 ([1]; same concentration (nM), same period (24 hours)): stronger than that induced by E2

Compound: O=c1c(-c2ccc(O)cc2)coc2cc(O[C@@H]3O[C@H](CO)[C@@H](O)[C@H](O)[C@H]3O)cc(O)c12 [genistin]
- GFP signal in the liver [1]: weak GFP signal

Compound: CCCCC(CC)COC(=O)c1ccc(N(C)C)cc1 (stereo not drawn) [OD-PABA, octyl dimethyl PABA]
- effect on estrogenic activity / liver GFP signal induced by 17β-estradiol [2]: estrogen agonism
- induction of GFP expression in the liver, compound alone [1]: cannot induce the GFP expression

Compound: CC(C)(c1ccc(O)cc1)c1ccc(O)cc1 [BPA, bisphenol A]
- induction of GFP expression in the liver, compound alone [1]: can also induce GFP expression

Compound: CC(=O)c1cc2c(cc1C)C(C)(C)C(C)CC2(C)C (stereo not drawn) [AHTN, 6-acetyl-1,1,2,4,4,7-hexamethyltetraline]
- GFP signal induced by E2 in the presence of AHTN ([2]; E2 0.04 μM, AHTN 5 μM, 24 hours): weaker GFP signal
- effect on estrogenic activity / liver GFP signal induced by 17β-estradiol [2]: decreased

Compound: O=c1c(-c2ccc(O)cc2)coc2cc(O)cc(O)c12 [genistein]
- GFP signal in the liver [1]: weak GFP signal

Compound: CC1CC(OC(=O)c2ccccc2O)CC(C)(C)C1 (stereo not drawn) [HMS, homosalate]
- effect on estrogenic activity / liver GFP signal induced by 17β-estradiol [2]: can enhance the estrogenic activity of 17β-estradiol in a dose-dependent manner; also recorded: increased
- induction of GFP expression in the liver, compound alone [1]: cannot induce the GFP expression

Compound: COc1ccc(C(=O)CC(=O)c2ccc(C(C)(C)C)cc2)cc1 [BMDM, 4-tert-Butyl-4′-methoxydibenzoylmethane]
- effect on estrogenic activity / liver GFP signal induced by 17β-estradiol [2]: estrogen agonism
- induction of GFP expression in the liver, compound alone [1]: cannot induce the GFP expression

Compound: O=c1c(-c2ccc(O)cc2)coc2cc(O)ccc12 [daidzein]
- GFP signal in the liver [1]: weak GFP signal
